Legend:
Experiment in all cases: Post-emergence test, weed control effect
Assay type in all cases: in vivo
Details in all cases: Dose 3000 g/ha, after 3 weeks
Amaranthus retroflexus = system: Amaranthus retroflexus
How it was run: (§1)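 Weeds sown in soil-filled pots and sprayed at 2-3 leaf stage (2-3 weeks after sowing) with compound in acetone/Tween-80/water plus 80% vegetable oil methyl ester synergist at 1500 g/ha. After 3 weeks in the greenhouse, fresh-weight growth inhibition scored on a 0-10 scale (10 = completely dead).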

Rorippa indica = system: Rorippa indica
How it was run: as §1

Veronica polita = system: Veronica polita
How it was run: as §1

Chenopodiaceae = system: Chenopodiaceae
How it was run: as §1

CCc1cnn(C)c1-c1nnc(C(F)(F)F)cc1O [Compound 809]
10: weed control effect (activity level), Amaranthus retroflexus (Amaranthus retroflexus) | weed control effect (activity level), Rorippa indica (Rorippa indica) | weed control effect (activity level), Veronica polita (Veronica polita) | weed control effect (activity level), Chenopodiaceae (Chenopodiaceae)

Cn1ncc(C2CC2)c1-c1nnc(C(F)(F)F)cc1O [Compound 810]
10: weed control effect (activity level), Amaranthus retroflexus (Amaranthus retroflexus) | weed control effect (activity level), Rorippa indica (Rorippa indica) | weed control effect (activity level), Veronica polita (Veronica polita) | weed control effect (activity level), Chenopodiaceae (Chenopodiaceae)

COc1cnn(C)c1-c1nnc(C(F)(F)F)cc1O [Compound 811]
10: weed control effect (activity level), Amaranthus retroflexus (Amaranthus retroflexus) | weed control effect (activity level), Rorippa indica (Rorippa indica) | weed control effect (activity level), Veronica polita (Veronica polita) | weed control effect (activity level), Chenopodiaceae (Chenopodiaceae)

CCOc1cnn(C)c1-c1nnc(C(F)(F)F)cc1O [Compound 812]
10: weed control effect (activity level), Amaranthus retroflexus (Amaranthus retroflexus) | weed control effect (activity level), Rorippa indica (Rorippa indica) | weed control effect (activity level), Veronica polita (Veronica polita) | weed control effect (activity level), Chenopodiaceae (Chenopodiaceae)

Cn1ncc(OCc2ccccc2)c1-c1nnc(C(F)(F)F)cc1O [Compound 813]
10: weed control effect (activity level), Amaranthus retroflexus (Amaranthus retroflexus) | weed control effect (activity level), Rorippa indica (Rorippa indica) | weed control effect (activity level), Veronica polita (Veronica polita) | weed control effect (activity level), Chenopodiaceae (Chenopodiaceae)

CN(C)c1cnn(C)c1-c1nnc(C(F)(F)F)cc1O [Compound 816]
10: weed control effect (activity level), Amaranthus retroflexus (Amaranthus retroflexus) | weed control effect (activity level), Rorippa indica (Rorippa indica) | weed control effect (activity level), Veronica polita (Veronica polita) | weed control effect (activity level), Chenopodiaceae (Chenopodiaceae)

Cn1ncc(C#N)c1-c1nnc(C(F)(F)F)cc1O [Compound 820]
10: weed control effect (activity level), Amaranthus retroflexus (Amaranthus retroflexus) | weed control effect (activity level), Rorippa indica (Rorippa indica) | weed control effect (activity level), Veronica polita (Veronica polita) | weed control effect (activity level), Chenopodiaceae (Chenopodiaceae)

Cn1ncc(C(F)(F)F)c1-c1nnc(C(F)(F)F)cc1O [Compound 823]
10: weed control effect (activity level), Amaranthus retroflexus (Amaranthus retroflexus) | weed control effect (activity level), Rorippa indica (Rorippa indica) | weed control effect (activity level), Veronica polita (Veronica polita) | weed control effect (activity level), Chenopodiaceae (Chenopodiaceae)

Cn1ncc(C(F)F)c1-c1nnc(C(F)(F)F)cc1O [Compound 824]
10: weed control effect (activity level), Amaranthus retroflexus (Amaranthus retroflexus) | weed control effect (activity level), Rorippa indica (Rorippa indica) | weed control effect (activity level), Veronica polita (Veronica polita) | weed control effect (activity level), Chenopodiaceae (Chenopodiaceae)

Cn1ncc(CC(F)(F)F)c1-c1nnc(C(F)(F)F)cc1O [Compound 825]
10: weed control effect (activity level), Amaranthus retroflexus (Amaranthus retroflexus) | weed control effect (activity level), Rorippa indica (Rorippa indica) | weed control effect (activity level), Veronica polita (Veronica polita) | weed control effect (activity level), Chenopodiaceae (Chenopodiaceae)

CCn1nccc1-c1nnc(C(F)(F)F)cc1O [Compound 826]
10: weed control effect (activity level), Amaranthus retroflexus (Amaranthus retroflexus) | weed control effect (activity level), Rorippa indica (Rorippa indica) | weed control effect (activity level), Veronica polita (Veronica polita) | weed control effect (activity level), Chenopodiaceae (Chenopodiaceae)

CCn1nc(C2CC2)cc1-c1nnc(C(F)(F)F)cc1O [Compound 827]
10: weed control effect (activity level), Amaranthus retroflexus (Amaranthus retroflexus) | weed control effect (activity level), Rorippa indica (Rorippa indica) | weed control effect (activity level), Veronica polita (Veronica polita) | weed control effect (activity level), Chenopodiaceae (Chenopodiaceae)

CC(C)n1nccc1-c1nnc(C(F)(F)F)cc1O [Compound 828]
10: weed control effect (activity level), Amaranthus retroflexus (Amaranthus retroflexus) | weed control effect (activity level), Rorippa indica (Rorippa indica) | weed control effect (activity level), Veronica polita (Veronica polita) | weed control effect (activity level), Chenopodiaceae (Chenopodiaceae)

Cc1cc(-c2nnc(C(F)(F)F)cc2O)n(C(C)C)n1 [Compound 829]
10: weed control effect (activity level), Amaranthus retroflexus (Amaranthus retroflexus) | weed control effect (activity level), Rorippa indica (Rorippa indica) | weed control effect (activity level), Veronica polita (Veronica polita) | weed control effect (activity level), Chenopodiaceae (Chenopodiaceae)

CC(C)n1nc(F)cc1-c1nnc(C(F)(F)F)cc1O [Compound 830]
10: weed control effect (activity level), Amaranthus retroflexus (Amaranthus retroflexus) | weed control effect (activity level), Rorippa indica (Rorippa indica) | weed control effect (activity level), Veronica polita (Veronica polita) | weed control effect (activity level), Chenopodiaceae (Chenopodiaceae)

Oc1cc(C(F)(F)F)nnc1-c1ccnn1CC(F)(F)F [Compound 831]
10: weed control effect (activity level), Amaranthus retroflexus (Amaranthus retroflexus) | weed control effect (activity level), Rorippa indica (Rorippa indica) | weed control effect (activity level), Veronica polita (Veronica polita) | weed control effect (activity level), Chenopodiaceae (Chenopodiaceae)

Oc1cc(C(F)(F)F)nnc1-c1ccnn1-c1ccccc1 [Compound 832]
10: weed control effect (activity level), Amaranthus retroflexus (Amaranthus retroflexus) | weed control effect (activity level), Rorippa indica (Rorippa indica) | weed control effect (activity level), Veronica polita (Veronica polita) | weed control effect (activity level), Chenopodiaceae (Chenopodiaceae)

Oc1cc(C(F)(F)F)nnc1-c1ccnn1Cc1ccccc1 [Compound 833]
10: weed control effect (activity level), Amaranthus retroflexus (Amaranthus retroflexus) | weed control effect (activity level), Rorippa indica (Rorippa indica) | weed control effect (activity level), Veronica polita (Veronica polita) | weed control effect (activity level), Chenopodiaceae (Chenopodiaceae)

CC(=O)n1nccc1-c1nnc(C(F)(F)F)cc1O [Compound 834]
10: weed control effect (activity level), Amaranthus retroflexus (Amaranthus retroflexus) | weed control effect (activity level), Rorippa indica (Rorippa indica) | weed control effect (activity level), Veronica polita (Veronica polita) | weed control effect (activity level), Chenopodiaceae (Chenopodiaceae)

Cn1cc(-c2nnc(C(F)(F)F)cc2O)cn1 [Compound 839]
10: weed control effect (activity level), Amaranthus retroflexus (Amaranthus retroflexus) | weed control effect (activity level), Rorippa indica (Rorippa indica) | weed control effect (activity level), Veronica polita (Veronica polita) | weed control effect (activity level), Chenopodiaceae (Chenopodiaceae)

Cn1cncc1-c1nnc(C(F)(F)F)cc1O [Compound 857]
10: weed control effect (activity level), Amaranthus retroflexus (Amaranthus retroflexus) | weed control effect (activity level), Rorippa indica (Rorippa indica) | weed control effect (activity level), Veronica polita (Veronica polita) | weed control effect (activity level), Chenopodiaceae (Chenopodiaceae)

N#Cc1ccc(-c2nnc(C(F)(F)F)cc2O)s1 [Compound 873]
10: weed control effect (activity level), Amaranthus retroflexus (Amaranthus retroflexus) | weed control effect (activity level), Rorippa indica (Rorippa indica) | weed control effect (activity level), Veronica polita (Veronica polita) | weed control effect (activity level), Chenopodiaceae (Chenopodiaceae)

Oc1cc(C(F)(F)F)nnc1C1C=C2C=CC=CC2N1 (stereo not shown) [Compound 877]
10: weed control effect (activity level), Amaranthus retroflexus (Amaranthus retroflexus) | weed control effect (activity level), Rorippa indica (Rorippa indica) | weed control effect (activity level), Veronica polita (Veronica polita) | weed control effect (activity level), Chenopodiaceae (Chenopodiaceae)

Oc1cc(C(F)(F)F)nnc1-c1cncc(F)c1 [Compound 963]
10: weed control effect (activity level), Amaranthus retroflexus (Amaranthus retroflexus) | weed control effect (activity level), Rorippa indica (Rorippa indica) | weed control effect (activity level), Veronica polita (Veronica polita) | weed control effect (activity level), Chenopodiaceae (Chenopodiaceae)

Oc1cc(C(F)(F)F)nnc1-c1cnccc1F [Compound 964]
10: weed control effect (activity level), Amaranthus retroflexus (Amaranthus retroflexus) | weed control effect (activity level), Rorippa indica (Rorippa indica) | weed control effect (activity level), Veronica polita (Veronica polita) | weed control effect (activity level), Chenopodiaceae (Chenopodiaceae)

Oc1cc(C(F)(F)F)nnc1-c1cccnc1Br [Compound 965]
10: weed control effect (activity level), Amaranthus retroflexus (Amaranthus retroflexus) | weed control effect (activity level), Rorippa indica (Rorippa indica) | weed control effect (activity level), Veronica polita (Veronica polita) | weed control effect (activity level), Chenopodiaceae (Chenopodiaceae)

Oc1cc(C(F)(F)F)nnc1-c1ccc(Br)nc1 [Compound 966]
10: weed control effect (activity level), Amaranthus retroflexus (Amaranthus retroflexus) | weed control effect (activity level), Rorippa indica (Rorippa indica) | weed control effect (activity level), Veronica polita (Veronica polita) | weed control effect (activity level), Chenopodiaceae (Chenopodiaceae)

Oc1cc(C(F)(F)F)nnc1-c1cncc(Br)c1 [Compound 967]
10: weed control effect (activity level), Amaranthus retroflexus (Amaranthus retroflexus) | weed control effect (activity level), Rorippa indica (Rorippa indica) | weed control effect (activity level), Veronica polita (Veronica polita) | weed control effect (activity level), Chenopodiaceae (Chenopodiaceae)

Oc1cc(C(F)(F)F)nnc1-c1cnccc1Br [Compound 968]
10: weed control effect (activity level), Amaranthus retroflexus (Amaranthus retroflexus) | weed control effect (activity level), Rorippa indica (Rorippa indica) | weed control effect (activity level), Veronica polita (Veronica polita) | weed control effect (activity level), Chenopodiaceae (Chenopodiaceae)

Oc1cc(C(F)(F)F)nnc1-c1cccnc1I [Compound 969]
10: weed control effect (activity level), Amaranthus retroflexus (Amaranthus retroflexus) | weed control effect (activity level), Rorippa indica (Rorippa indica) | weed control effect (activity level), Veronica polita (Veronica polita) | weed control effect (activity level), Chenopodiaceae (Chenopodiaceae)

Oc1cc(C(F)(F)F)nnc1-c1ccc(I)nc1 [Compound 970]
10: weed control effect (activity level), Amaranthus retroflexus (Amaranthus retroflexus) | weed control effect (activity level), Rorippa indica (Rorippa indica) | weed control effect (activity level), Veronica polita (Veronica polita) | weed control effect (activity level), Chenopodiaceae (Chenopodiaceae)
